Assay results from patent US20040097408A1, “Compounds regulating cell proliferation and differentiation” (priority 2001, published 2004).
Values joined by “and” are separate entries in the source; they are usually repeats but may differ in a detail not shown here. Identical values can stand only once.

Key:
[1] = test system: EpH4-EV and EpH4-A6 cells; experiment: superoxide levels by dihydroethidium flow cytometry; format: cell-based, mouse; settings: 3 μM F16, FIG. 11
Text: Besides ATP synthesis, the mitochondria plays different roles in cell physiology, among them control of the redox state of cells. Changes in the level of superoxide anion as an indicator of alterations in reactive oxygen intermediates generation by mitochondria of cells treated with F16 was examined by flow cytometry. Changes in the levels of intracellular oxidants were investigated using the fluorescent probe dihydroethidium (DHE) (Molecular Probes). Superoxide anion can oxidate DHE to ethidium bromide (EtBr) which binds to DNA. […] EpH4-EV and EpH4-A6 cells were grown in the absence or in the presence of 3 μM F16 for 15, 24, 48 and 72 hr. cells were resuspended and diluted to 10^6 cells/mL. DHE was added to the cell suspension to a final 2 μM in each case. Cells were incubated at 37° C. for 15 min and immediately analysed using flow cytometry.

[2] = level of F16 in serum of mice by fluorescence; format: in vivo, mouse; settings: 12.5 or 25 mg/kg intraperitoneally
Protocol: To determine the levels of F16 present in the blood of mice after injection of F16, two mice were injected intraperitoneally with 25 mg/kg F16 and two mice were injected intraperitoneally with 12.5 mg/kg of F16. […] 40-50 μL of blood was obtained from the tail vein of the mice and placed into tubes incubated in ice and containing Heparin to a final concentration of 20U/mL of blood. Samples were centrifuged at 6,000 rpm for 3 minutes in the cold room. Serum was transfered to a clean tube and stored at −70° C. until further processing. 2 μL of serum samples were spotted onto Whatman paper, alongside with dilutions of F16 as a standard. Since F16 is a fluorescent compound (see below), the presence of F16 was deteremined by measuring its fluorescence emission using the Storm 860 (Molecular Dynamics). The concentration of F16 in serum samples was estimated by visual comparison to the intensity of the standard.

NAF = experiment: cell cycle phases by BrdU incorporation / FACS; format: cell-based, mouse; settings: F16 3 μM, 30 hr
Protocol: (§1) The percentage of cells in the different phases of the cell cycle was assessed by measuring BrdU incorporation into the DNA of the cells. BrdU incorporation into DNA of untreated or F16 treated (3 μM/30-36 hr) EpH-EV and EpH-A6 cells was assessed by FACS as follows. After F16 or mock treatment, the cells were pulsed with BrdU (20 μM) for 1 hour and then fixed in 70% ethanol at −20° C. overnight. Next morning cells were washed twice with 1×PBS and the DNA was denatured by incubation of the cells in 2N HCl/0.5% Triton X-100. The cells were then washed twice in 0.1M Na2B2O7, and once in PBS. The cells were resuspended in PBS, incubated with 20 μL of anti-BrdU/FITC(Becton Dickinson) for 1 hour and subsequently washed with 1×PBS and resuspended in PBS. RNA was digested with RNaseA (1 μL of 10 mg/mL stock) at 37° C. for 30 minutes. Finally, the cells were diluted with 1 mL of 5 μg/mL propidium iodide/PBS and incubated on ice for 15 minutes. The labeled cells were analyzed using the FACSCalibur (Becton Dickinson).
(§2) The effect of F16 (3 μM) on BrdU incorporation into DNA of various Neu-induced, Ras-induced and Myc-induced tumor cells lines was examined using the same technique. The results, which are shown in Table 3, indicate that, except for 16MB9a, a myc tumor cell line that is not affected by F16, the other cell lines, all of which are sensitive to F16 show, as expected, a decrease in the percentage of cells in the S phase and an increase in the percentage of cells in G1 after 30 hr of incubation in medium containing F16 (3 μM). In some cases, an increase in the amount of cells in G2 phase was observed. This may reflect the heterogeneity of the tumor cells, some of which may have acquired defects in various cell cycle regulators as secondary events.

[3] = test system: Myc (16MB9a, a myc tumor cell line); experiment: cell cycle phases by BrdU incorporation / FACS; format: cell-based, mouse; settings: Myc tumor cell line (16MB9a); F16 3 μM, 30 hr
Protocol: as §1, §2

NF980 = experiment: cell cycle phases by BrdU incorporation / FACS; format: cell-based, mouse; settings: F16 3 μM, 30 hr
Protocol: as §1, §2

n-Neu = experiment: cell cycle phases by BrdU incorporation / FACS; format: cell-based, mouse; settings: F16 3 μM, 30 hr
Protocol: as §1, §2

AC816 = experiment: cell cycle phases by BrdU incorporation / FACS; format: cell-based, mouse; settings: F16 3 μM, 30 hr
Protocol: as §1, §2

SH1.1 = experiment: cell cycle phases by BrdU incorporation / FACS; format: cell-based, mouse; settings: F16 3 μM, 30 hr
Protocol: as §1, §2

EpH-A6 cells = experiment: cell cycle phases by BrdU incorporation / FACS; format: cell-based, mouse; settings: 3 μM F16, 30-36 hr, FIG. 5
Protocol: as §1

A6 cells = experiment: apoptosis time course (DNA fragmentation, propidium iodide staining, cytochrome c release); format: cell-based, mouse; settings: 3 μM F16, 48, 60 and 72 hr, FIG. 6
Protocol: The DNA fragmentation assay was conducted by isolating DNA from 1×10^6 of untreated or F16 treated for 48, 60 and 72 hr using Suicide-Track TM (Oncogene) according to manufacturer's procedure. Samples were resolved by agarose gel electrophoresis and ethidium-bromide stained. Cytochrome c release was measured by immunofluorescence as follows. Untreated or F16-treated A6 cells were washed and fixed with ice-cold 3.7% paraformaldehyde at RT, permeabilized for with ice-cold 0.01% (v/v) Nonidet P-40 for 20 min and incubated with 0.5% BSA/PB. Immunodetection was performed with monoclonal anti-cytochrome c antibody (PharMingen) and secondary anti-mouse-TRITC conjugated antibody. Cells were photographed under Axioskop using a Spot Camera (Diagnostic Instruments).

[4] = test system: β-catenin-initiated mouse breast tumor cell lines

C[n+]1ccc(/C=C/c2c[nH]c3ccccc23)cc1.[I-] [F16]
superoxide level (ethidium/DNA fluorescence) [1]: increase in the ethidium/DNA fluorescence
F16 in blood 20 hours after the injection [2]: not detected
time of the maximum level of F16 in the blood ([2]; FIG. 7): 1 to 3 h
level of F16 in the blood at 7 hours after the injection ([2]; compared to standard): nanomolar range
maximum level of F16 in the blood ([2]; compared to standard): micromolar range
With F16 % G1 (NAF): 86.8%
With F16 % G2 (NAF): 3.6%
With F16 % S (NAF): 4.7%
With F16 % G1 [3]: 82.7% and 83.8%
With F16 % G2 [3]: 1.5%
With F16 % S [3]: 12.8% and 12.7%
With F16 % G1 (NF980): 68.6% and 69.6%
With F16 % G2 (NF980): 12.4% and 8.9%
With F16 % S (NF980): 17.3% and 17.0%
With F16 % G1 (n-Neu): 64.5% and 61.5%
With F16 % G2 (n-Neu): 15.4% and 17.8%
With F16 % S (n-Neu): 18.2% and 19.6%
With F16 % G1 (AC816): 96.8% and 95.1%
With F16 % G2 (AC816): 2.7% and 2.8%
With F16 % S (AC816): 0.1% and 0.2%
With F16 % G1 (SH1.1): 81.3% and 79.7%
With F16 % G2 (SH1.1): 10.4% and 13.2%
With F16 % S (SH1.1): 7.1%
percentage of cells in G1 phase (EpH-A6 cells): increase
percentage of cells in the S phase (EpH-A6 cells): dramatic decrease
cell death on prolonged incubation (A6 cells): increased cell death
selectivity for β-catenin-initiated mouse breast tumor cell lines [4]: to some extent selectivity
